How the values were obtained:
Assay in all cases: MIC by microtiter dilution in Mueller Hinton Broth
Details in all cases: 5×10^5 CFU/ml, 37° C., 18 hours, A600
[1] = test system: E. Coli; type: cell-based, Escherichia coli
Protocol: (§1) Minimal inhibitory concentrations (MIC) were determined by a standard microtiter dilution method in Mueller Hinton Broth (MHB) medium. Bacteria cells were grown overnight at 37° C. in MHB medium and diluted to a bacteria concentration of 10^6 colony forming units (CFU)/ml. The bacteria concentration was adjusted to 5×10^5 CFU/ml by adding 100 μl of a suspension of the bacteria cultured under the above conditions to 100 μl of a polylysine aqueous solution diluted to 10^3 to 1 μg/ml, and samples were prepared. The samples were incubated at 37° C. for 18 hours, and the MICs (lowest polylysine concentration that inhibited cell growth) after 18 hours were determined.

[2] = test system: P. aeruginosa; type: cell-based, Pseudomonas aeruginosa
Protocol: as §1

[3] = test system: S. marcescence; type: cell-based, Serratia marcescens
Protocol: as §1

[4] = test system: C. albicans; type: cell-based, Candida albicans
Protocol: as §1

[5] = test system: F. solani; type: cell-based, Fusarium solani
Protocol: as §1

[6] = test system: S. aureus; type: cell-based, Staphylococcus aureus
Protocol: as §1

Substance	MIC [1] [mg/L]	MIC [2] [mg/L]	MIC [3] [mg/L]	MIC [4] [mg/L]	MIC [5] [mg/L]	MIC [6] [mg/L]
methacrylated epsilon-polylysine [MA-EPL]	7.8	7.8	15.6	27	54	–
epsilon-polylysine [EPL]	7.8	7.8	15.6	54	109	7.8

Source: patent publication US9238715B2, “Polymerizable composition for ophthalmic and medical use and antimicrobial composition obtained by polymerizing the polymerizable composition” (NANYANG TECHNOLOGICAL UNIVERSITY, priority 2010, dated 2016)
